Data reported in US10898469B2, “Imidazolylamide derivative” (Sumitomo Dainippon Pharma Co., Ltd., priority 2016, dated 2021).

Assays:
[1] = Pharmacokinetic assay in tumor-bearing mice where HCT-116 cells were transplanted (Test Example 3); type: in vivo; conditions: female, BALB/cAnNCrlj-nu/nu, plasma, tumor-bearing nude mouse, oral single dose 100 mg/kg, 20% Labrasol
Protocol: A 7- to 12-week-old nude mouse (BALB/cAnNCrlj-nu/nu, female, CHARLES RIVER LABORATORIES JAPAN, INC.) received intradermal transplantation of human colorectal cancer-derived HCT-116 cells (ATCC) in an amount of 3×10^6 cells/mouse around the ventral part. […] Blood was collected 1, 2, 6, and 24 hours after administration, and centrifuged to afford plasma samples. Methanol was added to the plasma samples so as to be adjusted to 80% of the final concentration. The samples were centrifuged and filtered to be deproteinized. Then, the test compound was detected and quantitated with LC-MS/MS (API4000, AB SCIEX). In quantitation, a calibration curve was prepared with mouse plasma comprising a known amount of the compound and Bezafibrate was used for the internal standard.
The test in Test Example 3 was performed for the compounds of Examples.
The following table and FIGS. 1 to 5 show temporal changes of the plasma concentrations of compounds after oral administration.

HCT-116 cells = test: Drug efficacy assay in tumor-bearing mice where HCT-116 cells were transplanted (Test Example 4); type: in vivo; conditions: HCT-116 tumor-bearing nude mouse, oral, dosage 200 mg/kg, administration period 15 days
Excerpt: The present compound can be used to evaluate the anti-tumor effect thereof according to the following assay. A 4- to 7-week-old nude mouse (BALB/cAnNCrj-nu/nu, female, CHARLES RIVER LABORATORIES JAPAN, INC.) received intradermal transplantation of human colorectal cancer-derived HCT-116 cells (ATCC) in an amount of 3×10^6 cells/mouse around the ventral portion. The engraftment of HCT-116 cells was observed 5 to 14 days after the transplantation, and then each compound suspended in a solvent such as 0.5% methylcellulose solution was orally administrated to the mouse in a dose of 1 to 200 mg/kg one to twice daily. The tumor volume was measured over time after the administration to evaluate the effect for reducing the tumor volume by the administration of each compound. The tumor volume can be calculated from the minor axis and major axis of the tumor measured with a digital caliper (Mitutoyo) according to the following equation: Tumor volume [mm^3]=[…] The tumor volume in the present-compound-administration group was compared with that of the control administration group treated with only a solvent such as 0.5% methylcellulose solution, and T/C value was calculated according the following equation to evaluate the anti-tumor effect of the present compound. […]

Compound `CC(=O)Nc1ccc(/C=C/C(=O)Nc2cn(Cc3cccc(C(F)(F)F)c3)cn2)cc1.Cl` [Example 122, (E)-N-(1-(3-trifluoromethyl-benzyl)-1H-imidazol-4-yl)-3-(4-(acetylamino)phenyl)acrylamide] has a concentration at 1 h ([1]; 1 hour, read-out: Plasma concentrations after oral administration, 1 hour) of 160 ng/mL, a concentration at 2 h ([1]; 2 hours, read-out: Plasma concentrations after oral administration, 2 hours) of 642 ng/mL and a concentration at 6 h ([1]; 6 hours, read-out: Plasma concentrations after oral administration, 6 hours) of 467 ng/mL. The concentration at 24 h ([1]; 24 hours, read-out: Plasma concentrations after oral administration, 24 hours) was 221 ng/mL and the T/C (HCT-116 cells) was 51%.
